In the supplement of paper PMC12532568:
Where a name gives a salt, the structure may show the parent alone.

Tested on: Danio rerio larvae Tg(actc1b:ZsGreen-LC3), 3 dpf
Assay: LC3 puncta relative area vs vehicle (mean) (log2 fold change); higher = more autophagy
Details: treatment time 16 h
Method: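 Transgenic ZsGreen-LC3 zebrafish larvae (2 dpf) were treated for 16 h with natural bioactives at 10, 50, 100 or 250 µM. Skeletal-muscle LC3 puncta area was measured by high-content imaging with or without 4 h of 100 mM NH4Cl, normalised to vehicle, and reported as the mean log2 fold change over 4–21 larvae.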

Row | SMILES | LC3 puncta (log2) (NH4Cl: + NH4Cl, 10 µM) | LC3 puncta (log2) (NH4Cl: + NH4Cl, 50 µM) | LC3 puncta (log2) (NH4Cl: + NH4Cl, 100 µM) | LC3 puncta (log2) (NH4Cl: + NH4Cl, 250 µM) | LC3 puncta (log2) (NH4Cl: - NH4Cl, 10 µM) | LC3 puncta (log2) (NH4Cl: - NH4Cl, 50 µM) | LC3 puncta (log2) (NH4Cl: - NH4Cl, 100 µM) | LC3 puncta (log2) (NH4Cl: - NH4Cl, 250 µM)
1 | C/C=C\C=C\C(=O)O [(2E,4Z)-2,4-hexadienoic acid] | 0.772 | 1.14 | 1.21 | 0.824 | 0.44 | -0.191 | 1.17 | -0.266
2 | CCOC(=O)CC(O)(CC(=O)OCC)C(=O)OCC [Triethyl citrate] | 0.559 | 0.524 | 1.06 | 1.44 | 0.227 | 0.572 | 0.551 | 0.957
3 | CC1=C(/C=C/C(C)=C/C=C/C(C)=C/CO)C(C)(C)CCC1 [Retinol] | 1.19 | 0.124 | 0.0946 | – | 0.12 | -0.269 | 0.255 | 0.596
4 | NC(=O)c1ccc[n+]([C@@H]2O[C@H](COP(=O)([O-])O)[C@@H](O)[C@H]2O)c1 [Nicotinamide mononucleotide] | 1.01 | 0.775 | 0.349 | 0.19 | -0.0834 | -0.119 | -0.518 | -0.271
5 | C/C1=C2N=C(/C=C3N=C(/C(C)=C4\[N-]C(C(CC(N)=O)C4(C)CCC(=O)NCC(C)OP(=O)([O-])OC4C(CO)OC(n5cnc6cc(C)c(C)cc65)C4O)C4(C)N=C1C(CCC(N)=O)C4(C)CC(N)=O)C(CCC(N)=O)C\3(C)C)C(CCC(N)=O)C/2(C)CC(N)=O.[CH3-].[Co+3] (configuration not stated) [Methylcobalamin] | 0.507 | 0.557 | 0.386 | -0.454 | -0.125 | -0.236 | 0.239 | -0.503
6 | CCCCC(=O)[O-].[Na+] [Valeric acid sodium salt] | -0.472 | -0.35 | -0.0575 | -0.14 | -0.132 | 0.109 | -0.272 | -0.191
7 | O=C(O)c1cccnc1 [Nicotinic acid] | 0.718 | 0.758 | 0.79 | 0.941 | 0.0747 | 0.284 | 0.456 | 0.418
8 | CC(C)C[C@H](N)C(=O)O [L-Leucine] | 0.433 | 0.183 | 0.128 | -0.405 | -0.25 | -0.762 | -0.689 | -0.726
9 | O=C1C[C@H](O)[C@@H](CO)O1 [2-deoxyribonolactone] | 0.749 | 0.4 | 0.746 | 0.616 | 0.195 | -0.131 | 0.251 | -0.0832
10 | CCCCCCCC(=O)[O-].[Na+] [Sodium octanoate] | 0.613 | 0.427 | 0.342 | 0.503 | -0.0249 | 0.344 | 0.217 | 0.272
11 | CCCCCCCC(=O)O [Octanoic acid] | 0.0521 | 0.079 | 0.553 | – | -0.257 | 0.356 | 0.0532 | –
12 | C[C@@H](O)CC(=O)O [(R)-3-Hydroxybutyric acid] | 0.877 | 0.689 | 0.929 | 1.01 | 0.111 | -0.78 | 0.265 | 0.324
13 | CC(=O)CC(=O)O [Lithium acetoacetate] | 0.433 | 0.388 | 0.24 | 0.594 | 0.304 | -0.266 | -0.279 | 0.0398
14 | Cc1ccc(C(C)C)c(O)c1 [Thymol] | 0.947 | 1.4 | 1.68 | 1.55 | 0.0897 | 0.575 | 0.869 | 1.65
15 | CC(=O)OC/C=C(C)/C=C/C=C(C)/C=C/C1=C(C)CCCC1(C)C [Retinol acetate] | 0.716 | 0.504 | 0.948 | 1.18 | 0.543 | 0.167 | 0.303 | 1.12
16 | CC(O)C(=O)O (configuration not stated) [Lactic acid] | 0.558 | 0.374 | 0.472 | 0.345 | 0.287 | -0.151 | -0.219 | 0.079
17 | CC1=C(/C=C/C(C)=C/C=C/C(C)=C/C=C/C=C(C)/C=C/C=C(C)/C=C/C2=C(C)CCCC2(C)C)C(C)(C)CCC1 [beta-Carotene] | 0.44 | 0.208 | 0.299 | 1.2 | 0.227 | -0.273 | 0.207 | 0.305
18 | CCC(O)CC(=O)O (configuration not stated) [b-Hydroxyvalerate] | 0.933 | 0.6 | 1.08 | 1.21 | 0.353 | 0.272 | 0.404 | 0.37
19 | CC(O)CC(=O)O (configuration not stated) [3-Hydroxybutyrate] | 0.306 | 0.707 | 0.353 | 0.884 | 0.219 | 0.327 | 0.00999 | 0.0766
20 | O=C(O)c1ccccc1 [Benzoic acid] | -0.0668 | 0.917 | 1.5 | – | 0.129 | 0.383 | 1.14 | –
21 | NC(=O)c1cccnc1 [Nicotinamide NAM] | 0.821 | 0.328 | 0.663 | 0.606 | -0.196 | -0.178 | 0.12 | -0.631
22 | Cc1ccc(C(C)C)cc1O [Carvacrol] | 0.565 | 1.07 | 1.84 | 1.67 | 0.493 | 0.93 | 1.08 | 1.92
23 | Oc1cc(O)c2c(c1)O[C@H](c1ccc(O)c(O)c1)[C@H](O)C2 [(-)-Epicatechin] | 0.954 | 0.317 | 0.232 | 0.0319 | -0.000662 | -0.156 | -0.539 | -0.492
24 | O=C(O)CC(O)(CC(=O)O)C(=O)O [Citric acid] | 0.486 | 0.837 | -0.0949 | -0.815 | -0.0291 | -0.364 | 0.353 | 0.401
25 | O=c1c(O)c(-c2ccc(O)c(O)c2)oc2cc(O)cc(O)c12 [Quercetin] | 0.773 | 0.126 | 0.298 | 0.298 | -0.173 | -0.502 | -1.19 | -0.815
26 | O=C(O)CCSCCC(=O)O [3,3'-thiodipropionic acid] | 0.309 | 0.728 | -0.445 | 0.629 | 0.0135 | 0.045 | -0.0204 | -0.062
27 | C[C@@H](O)CCO [(R)-1,3-Butylene Glycol] | 0.22 | -0.0174 | 0.179 | 0.0875 | 0.0281 | -0.261 | -0.294 | -0.184
28 | C[N+](C)(C)CCO.C[N+](C)(C)CCO.C[N+](C)(C)CCO.O=P([O-])([O-])[O-] [Tricholine phosphate] | 0.7 | 0.208 | -0.172 | 0.38 | 0.0959 | 0.0907 | 0.25 | -0.277
29 | CC(O)CC(=O)O (configuration not stated) [Sodium 3-hydroxybutyrate] | 0.123 | 0.569 | 0.8 | 0.884 | 0.0599 | 0.278 | 0.0997 | 0.295
